Experimental data as given in paper PMC3700404 (Chemistry & biology, 2008).

How the values were obtained:
[1] = molecular target: T1, hCB2 C6.47(257)A mutant receptor (Homo sapiens, UniProt P34972, C257A); experiment: Affinity-labeling assay, hCB2 C6.47; details: 9 nM AM-841, 1 hr, 30°C, washed
[2] = molecular target: hCB1 K3.28(192)A mutant receptor (Homo sapiens, UniProt P21554, K192A); experiment: Competitive binding assay, hCB1 K3.28; details: radioligand [3H]-CP55940
[3] = molecular target: T1, hCB2 C6.47(257)A mutant receptor; experiment: Competitive binding assay, hCB2 C6.47; details: for enhancement of ability to displace CP55940 versus WT hCB2 / increase in affinity over WT hCB2 receptor: C6.47(257)A vs WT; for Ki: mean (95% CI)
[4] = molecular target: hCB2 C7.42(288)S mutant receptor (Homo sapiens, UniProt P34972, C288S); experiment: Affinity-labeling assay, hCB2 C7.42; details: 9 nM AM-841, 1 hr, 30°C, washed
hCB2 C7.42(288)S mutant receptor, sequence (P34972 whole entry C288S): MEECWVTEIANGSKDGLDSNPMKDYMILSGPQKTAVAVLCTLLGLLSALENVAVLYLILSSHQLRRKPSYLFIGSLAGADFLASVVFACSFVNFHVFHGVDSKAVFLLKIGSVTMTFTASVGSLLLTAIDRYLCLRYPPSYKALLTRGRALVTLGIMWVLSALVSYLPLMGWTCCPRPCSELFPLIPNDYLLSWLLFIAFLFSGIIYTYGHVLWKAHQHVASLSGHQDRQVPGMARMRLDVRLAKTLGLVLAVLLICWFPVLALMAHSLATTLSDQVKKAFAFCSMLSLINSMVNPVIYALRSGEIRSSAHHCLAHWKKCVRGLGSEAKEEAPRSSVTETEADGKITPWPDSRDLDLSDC

[5] = molecular target: T1, hCB2 C6.47(257)A mutant receptor; experiment: Inhibition of forskolin-stimulated cAMP accumulation, hCB2 C6.47; type: cell-based; details: read-out: IC50, inhibition of forskolin-stimulated cAMP accumulation; HEK293 cells, 5 μM forskolin, 5 min; mean (95% CI)
[6] = molecular target: hCB2 K3.28(109)A mutant receptor (Homo sapiens, UniProt P34972, K109A); experiment: Competitive binding assay, hCB2 K3.28; details: radioligand [3H]-CP55940; mean (95% CI)
hCB2 K3.28(109)A mutant receptor, sequence (P34972 whole entry K109A): as the sequence (P34972 whole entry C288S) above, with K109A, S288C counted along it

[7] = system: C6.47(257)K, C6.47(257)I, C6.47(257)L, C6.47(257)D, and C6.47(257)Y hCB2 receptor mutants; experiment: Competitive binding assay, further C6.47; design: species or system human; details: radioligand [3H]-CP55940; data not shown
[8] = molecular target: T2, hCB2 C6.47(257)S mutant receptor (Homo sapiens, UniProt P34972, C257S); experiment: Competitive binding assay, hCB2 C6.47; details: for Ki: mean (95% CI); for increase in affinity over WT hCB2 receptor: C6.47(257)S vs WT
T2 sequence (P34972 whole entry C257S): as the sequence (P34972 whole entry C288S) above, with C257S, S288C counted along it

[9] = molecular target: T2, hCB2 C6.47(257)S mutant receptor; experiment: Affinity-labeling assay, hCB2 C6.47; details: 9 nM AM-841, 1 hr, 30°C, washed
WT hCB2 receptor [10] = molecular target: T3, WT hCB2 receptor (Homo sapiens, UniProt P34972); experiment: Inhibition of forskolin-stimulated cAMP accumulation, WT hCB2 cells; type: cell-based; details: read-out: IC50, inhibition of forskolin-stimulated cAMP accumulation; HEK293 cells, 5 μM forskolin, 5 min; mean (95% CI)
T3 sequence (P34972 whole entry): as the sequence (P34972 whole entry C288S) above, with S288C counted along it

[11] = molecular target: T2, hCB2 C6.47(257)S mutant receptor; experiment: Inhibition of forskolin-stimulated cAMP accumulation, hCB2 C6.47; type: cell-based; details: read-out: IC50, inhibition of forskolin-stimulated cAMP accumulation; HEK293 cells, 5 μM forskolin, 5 min; mean (95% CI)
WT hCB2 receptor [12] = molecular target: T3, WT hCB2 receptor; experiment: Affinity-labeling assay
[13] = molecular target: hCB2 C7.38(284)S mutant receptor (Homo sapiens, UniProt P34972, C284S); experiment: Affinity-labeling assay, hCB2 C7.38; details: 9 nM AM-841, 1 hr, 30°C, washed
hCB2 C7.38(284)S mutant receptor, sequence (P34972 whole entry C284S): as the sequence (P34972 whole entry C288S) above, with C284S, S288C counted along it

[14] = system: C6.47(257)K, C6.47(257)I, C6.47(257)L, C6.47(257)D or C6.47(257)Y mutant hCB2 receptors; experiment: Saturation-binding assay, further C6.47; design: species or system human; details: data not shown
[15] = system: CB2 receptor S7.39A mutant; details: ref Rhee (2002); cited from earlier work

T1 sequence (P34972 whole entry C257A): as the sequence (P34972 whole entry C288S) above, with C257A, S288C counted along it
hCB1 K3.28(192)A mutant receptor, sequence (P21554 whole entry K192A): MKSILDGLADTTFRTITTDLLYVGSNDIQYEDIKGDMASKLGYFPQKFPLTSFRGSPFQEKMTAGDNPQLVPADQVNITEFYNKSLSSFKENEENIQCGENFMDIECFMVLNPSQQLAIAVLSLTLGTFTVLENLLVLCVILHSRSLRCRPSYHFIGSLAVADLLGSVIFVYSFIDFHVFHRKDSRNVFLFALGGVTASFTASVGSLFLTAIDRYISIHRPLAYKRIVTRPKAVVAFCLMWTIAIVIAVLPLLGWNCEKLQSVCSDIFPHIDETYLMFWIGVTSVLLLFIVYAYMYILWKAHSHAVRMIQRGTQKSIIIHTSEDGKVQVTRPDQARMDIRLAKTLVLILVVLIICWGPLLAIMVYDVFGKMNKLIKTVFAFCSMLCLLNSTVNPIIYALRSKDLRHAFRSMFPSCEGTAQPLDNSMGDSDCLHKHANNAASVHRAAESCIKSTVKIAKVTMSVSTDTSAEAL

In the case of `CC(C)(CCCCCCN=C=S)c1cc(O)c2c(c1)OC(C)(C)C1CCC(CO)CC21` (single isomer, unassigned; (-)) [AM-841, (−)-7′-isothiocyanato-11-hydroxy-1′,1′-di-methylheptylhexahydrocannabinol], the “decrease in [3H]-CP55940 Bmax after AM-841 pretreatment” value [1] is reported as “no distinct decrease”, the Ki [2] is reported as “No Specific Binding” and the “enhancement of ability to displace CP55940 versus WT hCB2” value ([3]; radioligand [3H]-CP55940) is reported as “at least 2 fold”. For the same molecule, the Ki ([3]; radioligand [3H]-CP55940) was 0.71 nM, the “increase in affinity over WT hCB2 receptor” value (from here on “increase in affinity”) ([3]; radioligand [3H]-WIN55212-2) was 3–6 fold and the Ki ([3]; radioligand [3H]-WIN55212-2) was 0.7 nM. The “decrease in [3H]-CP55940 binding after AM-841 pretreatment” value (from here on “decrease in [3H]-CP55940 binding”) [4] was ~ 80%, the IC50 [5] was 6.01 nM and the Ki [6] was 2.31 nM. The “specific binding in competitive binding assay” value [7] was “no specific binding”, the Ki ([8]; radioligand [3H]-CP55940) was 1.68 nM and the “increase in affinity” value ([8]; radioligand [3H]-WIN55212-2) was 3–6 fold. The Ki ([8]; radioligand [3H]-WIN55212-2) was 1.5 nM, the “decrease in [3H]-CP55940 Bmax after AM-841 pretreatment” value [9] was “no distinct decrease” and the IC50 (WT hCB2 receptor [10]) was 0.079 nM. For the same molecule, the IC50 [11] was 2.88 nM, the “Bmax for [3H]-CP55940 binding after preincubation” value (WT hCB2 receptor [12]; 9 nM AM-841, 1 hr, 30°C, then extensive wash-out, control membranes 1.05) was 0.22 pmol/mg and the “decrease in [3H]-CP55940 binding” value (WT hCB2 receptor [12]; 9 nM AM-841, 1 hr, 30°C, washed) was ~ 80%. For the same molecule, the “irreversible AM-841 binding” value (WT hCB2 receptor [12]; data not shown) was ~ 80% and the “decrease in [3H]-CP55940 binding” value [13] was ~ 80%.
In the case of `CN1CCCCC1Cn1cc(C(=O)c2ccccc2I)c2ccccc21` (centres unmarked) [AM-2233], the “increase in affinity” value ([3]; radioligand [3H]-WIN55212-2) is reported as “over 11 fold”, the Ki ([3]; radioligand [3H]-WIN55212-2) is reported as 0.5 nM and the “increase in affinity” value ([8]; radioligand [3H]-WIN55212-2) is reported as “over 11 fold”. For the same molecule, the Ki ([8]; radioligand [3H]-WIN55212-2) was 0.8 nM.
For `CC(C)(CCCCCCBr)c1cc(O)c2c(c1)OC(C)(C)C1CCC(CO)CC21` (centres unmarked) [AM-4043], the “enhancement of ability to displace CP55940 versus WT hCB2” value ([3]; radioligand [3H]-CP55940) was “at least 2 fold”, the Ki ([3]; radioligand [3H]-CP55940) was 0.88 nM and the Ki ([3]; radioligand [3H]-WIN55212-2) was 0.8 nM. It also gave a Ki ([8]; radioligand [3H]-CP55940) of 1.51 nM and a Ki ([8]; radioligand [3H]-WIN55212-2) of 1.4 nM.
With `CCCCCCC(C)(C)c1ccc([C@@H]2C[C@H](O)CC[C@H]2CCCO)c(O)c1` [[^3H]-CP55940] the “specific binding of radioligand” value [14] was “no specific binding”.
With `CCCCCCC(C)(C)c1cc(O)c2c(c1)OC(C)(C)[C@@H]1CC[C@@H](CO)C[C@@H]21` [AM-4056] the Ki [2] was “No Specific Binding”, the “enhancement of ability to displace CP55940 versus WT hCB2” value ([3]; radioligand [3H]-CP55940) was “at least 2 fold” and the Ki ([3]; radioligand [3H]-CP55940) was 1.03 nM. For the same molecule, the Ki ([3]; radioligand [3H]-WIN55212-2) was 0.5 nM, the IC50 [5] was 2.62 nM and the Ki [6] was 1.14 nM. It also gave a Ki ([8]; radioligand [3H]-CP55940) of 1.52 nM, a Ki ([8]; radioligand [3H]-WIN55212-2) of 1.2 nM and an IC50 (WT hCB2 receptor [10]) of 3.27 nM. It also gave an IC50 [11] of 8.82 nM.
In the case of `CCCCCCC(C)(C)c1cc(O)c2c(c1)OC(C)(C)[C@@H]1CC[C@@H](CO)C[C@@H]21` [HU-243], the “loss of affinity in S7.39A mutant” value [15] is listed as “over 10 fold”.
